Key:
[1] = molecular target: P-glycoprotein (P-gp) (Homo sapiens (Human), UniProt P08183); assay: MDCK-MDR1 permeability / efflux assay; assay type: in vitro ADME; conditions: for efflux ratio at 120 min, 10 μM: dog, MDCK-MDR1, pH 7.4, efflux ratio, read-out: MDCK-MDR1 ER
Method: Example 4. Experimental Measurement of Efflux with MDCK-MDR1 Protocol
Cell Culture. MDCK-MDR1 cells were cultured at 37° C. under a 5% CO2 atmosphere, at 95% relative humidity in DMEM containing 10% FBS, penicillin-streptomycin (100 μg/mL), and 2 mM Ala-Gln. Cells were passaged every 3-4 days. For assay purposes, cells were seeded at a density of approximately 265,000 cells/cm^2 of a 96-well Transwell plate (Corning Life Sciences, Acton, MA) and cultured in the same media noted above for a period of 4 days.
Assay. The determination of the apparent permeability (Papp) was performed in both the A→B (apical to basal) and B→A (basal to apical) directions where each compound was assayed in triplicate. The zwitterion bestatin, a poorly permeably compound, was used as marker of monolayer integrity. To initiate the assay, media was aspirated, and the cells and basal chambers were washed three times with Hank's Balanced Salt Solution (HBSS) containing 10 mM HEPES (pH 7.4). Compound test solutions were prepared in triplicate in HBSS containing 10 mM HEPES (pH 7.4) and 0.02% bovine serum albumin (BSA) to a final concentration of 10 μM and centrifuged for 2 min at 4000×g, then applied to the donor compartment at time zero. Additionally, at time zero, a 37° C. solution without test articles (HBSS+10 mM HEPES (pH 7.4) plus 0.02% BSA) was added to the receiver chamber of the Transwell plate. A time zero sample of the donor solution was also sampled for further analysis. The assay was conducted for a period of 120 min at 37° C. without shaking. At the time of assay termination, samples were taken from each donor compartment, and each acceptor compartment of the Transwell plate. To each of the 0 and 120 min samples was added an internal standard solution containing glyburide in water:acetonitrile, 50:50 (v:v). Concentration curves were prepared using a Labcyte Echo in the same matrix noted above. Samples and concentration curve samples were centrifuged for 10 min at 4000×g and subsequently analyzed by mass spectroscopy.
Mass Spectroscopy. Assay samples were loaded onto a RapidFire C4 cartridge by means of a RapidFire autosampler (Agilent, Santa Clara, CA). […] Mass spectroscopy was performed using an AB Sciex AP15500 (Sciex, Frammingham, MA) equipped with a turbo ion spray source. The analyte concentration was calculated from the chromatographic peak area ratio of analyte to internal standard (glibenclamide, m/z 494→169), using Multiquant software V3.0 (Sciex, Framingham, MA).
Calculations. Papp values were determined as
Percent recovery values were determined as:
where VA is the volume of the acceptor (mL), S is the surface area of the membrane, D0 is the donor solution concentration at t=0, D120 is the donor solution concentration at t=120, A120 is the acceptor solution concentration at t=120, and t=time (seconds).
The suitability of a compound for oral dosing and/or for use as a CNS therapeutic is usually conducted by MDCK-MDR1 permeability assay to investigate its drug efflux potential mediated by P-glycoprotein (P-gp). MDCK-MDR1 permeability has been used as a predictor of blood brain barrier permeability in terms of efflux ratio (ER).

[2] = molecular target: NR2B (Rattus norvegicus (Rat), UniProt Q00960); assay: NR2B rat cortical neuron calcium influx assay; assay type: cell-based; conditions: rat cortical neurons, glutamate and glycine stimulated calcium influx
Source text: Example 1: NR2B Rat Cortical Neuron Calcium Influx Assay Protocol
Embryonic day 18 timed pregnant Sprague Dawley rats were euthanized according to Institutional Animal Care and Use Committee (IACUC) protocol. After cutting medially through the skin and exposing the uterus and embryos, fetuses were removed and placed in cold Hibernate medium. Each embryo's brain was extracted and cerebral cortices were isolated by removing the midbrain and meninges. The dissected cortices were then dissociated into the neurons using papain dissociation system (Worthington Biochemical Corporation) according the manufacturer's protocol.
Dissociated neurons were counted and plated into 384-well poly-D-lysine coated plates (Corning® BioCoat™) at a density of 20,000 cells/well in 30 μL of Neurobasal/B27 complete medium. Neurons were cultured at 37° C. for 2 days. On the assay day, medium was removed and cells were incubated with 20 μL/well of calcium dye (Calcium 6 Assay Kit, Molecular Devices) suspended in HBSS with 1.8 mM Ca^2+ (Ca-HBSS) according to the manufacturer's instruction.
Compounds of interest from 10 mM stock were serially diluted into 3× of desired concentrations in 1.8 mM Ca-HBSS, and 10 μL were added to the wells. Compound and the neurons were incubated at 37° C. for 2 hours in the dark.
On FDSS7000EX (Hamamatsu Photonics), a fluorescence measuring instrument, 10 μL of 4× ligand solution containing glutamate and glycine made in 1.8 mM Ca^2+-HBSS were added to each well. The fluorescent signals were collected before and after the addition of ligands for a total of 2 minutes. The data were converted to a ratio of the peak fluorescence to the fluorescence at the beginning of the measurement.
Each data point was measured in duplicates. Dose response curves were used to identify IC50 and maximal inhibition values. IC50 represents the concentration in μM of compound at which there is a half-maximal compound effect. Maximal inhibition of a compound is expressed as a percent of the highest inhibition of activity over a no compound control.

Chain of P-glycoprotein (P-gp) (P08183 whole entry): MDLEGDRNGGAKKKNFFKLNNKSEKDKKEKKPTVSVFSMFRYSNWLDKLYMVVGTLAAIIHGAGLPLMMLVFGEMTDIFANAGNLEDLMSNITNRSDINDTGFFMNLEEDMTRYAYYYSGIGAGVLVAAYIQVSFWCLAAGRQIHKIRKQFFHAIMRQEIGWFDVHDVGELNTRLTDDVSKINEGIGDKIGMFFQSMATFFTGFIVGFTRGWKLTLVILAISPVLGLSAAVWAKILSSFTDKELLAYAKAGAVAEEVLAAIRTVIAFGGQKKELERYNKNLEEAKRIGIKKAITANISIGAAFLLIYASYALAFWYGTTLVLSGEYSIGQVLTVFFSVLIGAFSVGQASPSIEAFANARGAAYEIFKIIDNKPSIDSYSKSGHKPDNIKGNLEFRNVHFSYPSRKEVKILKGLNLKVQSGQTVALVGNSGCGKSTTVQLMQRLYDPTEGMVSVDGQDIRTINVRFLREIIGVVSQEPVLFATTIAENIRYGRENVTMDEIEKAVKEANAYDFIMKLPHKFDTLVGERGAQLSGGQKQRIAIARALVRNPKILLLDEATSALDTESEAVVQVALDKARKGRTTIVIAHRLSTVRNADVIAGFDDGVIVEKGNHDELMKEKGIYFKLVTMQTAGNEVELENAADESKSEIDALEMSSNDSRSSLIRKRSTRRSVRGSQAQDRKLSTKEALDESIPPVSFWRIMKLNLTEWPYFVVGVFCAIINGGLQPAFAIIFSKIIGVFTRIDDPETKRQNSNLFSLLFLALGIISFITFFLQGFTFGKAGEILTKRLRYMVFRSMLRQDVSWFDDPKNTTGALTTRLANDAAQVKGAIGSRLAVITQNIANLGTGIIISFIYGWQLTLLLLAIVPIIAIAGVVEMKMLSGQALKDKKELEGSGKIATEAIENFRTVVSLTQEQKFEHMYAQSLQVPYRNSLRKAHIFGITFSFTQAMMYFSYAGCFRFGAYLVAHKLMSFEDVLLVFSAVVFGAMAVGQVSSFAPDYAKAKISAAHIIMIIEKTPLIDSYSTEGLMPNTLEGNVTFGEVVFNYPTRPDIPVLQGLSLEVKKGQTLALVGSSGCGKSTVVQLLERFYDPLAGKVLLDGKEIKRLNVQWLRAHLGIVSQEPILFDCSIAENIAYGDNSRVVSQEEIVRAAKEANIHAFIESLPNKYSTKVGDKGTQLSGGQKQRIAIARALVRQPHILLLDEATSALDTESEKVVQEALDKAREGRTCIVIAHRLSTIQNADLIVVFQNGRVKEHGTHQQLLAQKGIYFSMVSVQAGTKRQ
Chain of NR2B (Q00960 27-1482, other chains not shown): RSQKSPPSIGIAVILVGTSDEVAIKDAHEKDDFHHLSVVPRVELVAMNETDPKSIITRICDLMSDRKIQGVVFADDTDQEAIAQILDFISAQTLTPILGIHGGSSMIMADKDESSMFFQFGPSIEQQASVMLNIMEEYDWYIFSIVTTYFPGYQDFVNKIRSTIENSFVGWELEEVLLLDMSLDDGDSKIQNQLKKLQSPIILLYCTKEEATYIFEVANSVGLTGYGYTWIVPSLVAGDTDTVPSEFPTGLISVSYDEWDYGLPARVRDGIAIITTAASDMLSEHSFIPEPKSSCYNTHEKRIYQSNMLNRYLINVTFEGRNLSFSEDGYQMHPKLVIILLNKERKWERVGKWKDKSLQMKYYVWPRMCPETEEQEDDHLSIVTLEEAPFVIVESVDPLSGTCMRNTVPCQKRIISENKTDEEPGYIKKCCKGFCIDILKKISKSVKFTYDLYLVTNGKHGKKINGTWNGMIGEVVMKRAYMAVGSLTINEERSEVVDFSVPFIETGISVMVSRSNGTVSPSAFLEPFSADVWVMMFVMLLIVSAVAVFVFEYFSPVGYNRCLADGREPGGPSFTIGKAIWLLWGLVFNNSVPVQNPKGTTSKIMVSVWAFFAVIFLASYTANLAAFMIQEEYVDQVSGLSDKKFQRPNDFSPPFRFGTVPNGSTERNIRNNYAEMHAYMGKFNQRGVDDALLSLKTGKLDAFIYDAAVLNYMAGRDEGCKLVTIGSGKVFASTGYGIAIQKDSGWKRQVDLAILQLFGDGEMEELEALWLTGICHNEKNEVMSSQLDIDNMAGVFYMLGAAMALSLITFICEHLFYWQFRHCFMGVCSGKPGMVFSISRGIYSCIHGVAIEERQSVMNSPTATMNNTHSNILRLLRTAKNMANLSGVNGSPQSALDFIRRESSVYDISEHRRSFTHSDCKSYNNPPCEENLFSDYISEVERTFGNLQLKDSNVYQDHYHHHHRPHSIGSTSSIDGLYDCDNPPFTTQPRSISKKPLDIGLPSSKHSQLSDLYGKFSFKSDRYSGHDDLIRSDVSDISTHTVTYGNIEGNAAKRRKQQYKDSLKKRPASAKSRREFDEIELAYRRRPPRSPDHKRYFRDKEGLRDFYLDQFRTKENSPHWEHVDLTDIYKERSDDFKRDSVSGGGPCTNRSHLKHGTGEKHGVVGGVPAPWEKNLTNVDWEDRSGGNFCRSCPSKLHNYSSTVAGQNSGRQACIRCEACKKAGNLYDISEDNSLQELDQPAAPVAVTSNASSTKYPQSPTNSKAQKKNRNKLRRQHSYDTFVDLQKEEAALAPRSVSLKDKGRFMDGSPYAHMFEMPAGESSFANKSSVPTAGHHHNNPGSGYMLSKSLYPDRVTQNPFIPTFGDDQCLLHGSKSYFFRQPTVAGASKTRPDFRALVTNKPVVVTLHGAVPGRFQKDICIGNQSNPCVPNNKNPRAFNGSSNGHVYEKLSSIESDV

O=C1CCc2c(ccc([C@@H](O)CN3C[C@H]4C[C@H](Oc5ccccc5)C[C@@]4(O)C3)c2F)N1 (single isomer, unassigned) [Example 9A]
efflux ratio at 120 min, 10 μM [1]: 1.06 | IC50 [2]: 2.7 nM

O=C1Nc2ccc([C@@H](O)CN3C[C@H]4C[C@H](Oc5ccccc5F)C[C@@]4(O)C3)cc2CO1 (single isomer, unassigned) [Example 41A]
efflux ratio at 120 min, 10 μM [1]: 1.86 | IC50 [2]: 0.3 nM

O=C1Cc2cc([C@@H](O)CN3C[C@@H]4C[C@@H](Oc5ccccc5)[C@@H](O)[C@]4(O)C3)ccc2N1 [Example 3A, 5-((R)-2-((3aR,4R,5R,6aS)-3a,4-dihydroxy-5-phenoxyhexahydrocyclopenta[c]pyrrol-2(1H)-yl)-1-hydroxyethyl)indolin-2-one]
efflux ratio at 120 min, 10 μM [1]: 7.49 | IC50 [2]: 5490 nM

O=C1CCCc2cc([C@@H](O)CN3C[C@H]4C[C@H](Oc5ccccc5)C[C@@]4(O)C3)cc(F)c2N1 (single isomer, unassigned) [Example 30A]
efflux ratio at 120 min, 10 μM [1]: 1.18 | IC50 [2]: 280 nM

O=C1Nc2ccc([C@H](O)CN3C[C@H]4C[C@H](Oc5ccccc5)C[C@@]4(O)C3)cc2CO1 (single isomer, unassigned) [Example 28B]
efflux ratio at 120 min, 10 μM [1]: 3.18 | IC50 [2]: 1.7 nM

CC1(C)Cc2cc([C@@H](O)CN3C[C@H]4C[C@H](Oc5ccccc5)C[C@@]4(O)C3)ccc2NC1=O (single isomer, unassigned) [Example 11A]
efflux ratio at 120 min, 10 μM [1]: 1.74 | IC50 [2]: 1.9 nM

O=c1[nH]c2c(F)cc([C@H](O)CN3C[C@H]4C[C@H](Oc5ccccc5)C[C@@]4(O)C3)cc2cc1F (single isomer, unassigned) [Example 20B]
efflux ratio at 120 min, 10 μM [1]: 3.32 | IC50 [2]: 0.33 nM

O=c1ccc2cc([C@H](O)CN3C[C@H]4C[C@H](Oc5ccccc5)C[C@@]4(O)C3)ccc2[nH]1 (single isomer, unassigned) [Example 8B]
efflux ratio at 120 min, 10 μM [1]: 3.46 | IC50 [2]: 0.57 nM

O=C1Cc2cc([C@@H](O)CN3C[C@H]4C[C@H](Oc5ccccc5)C[C@@]4(O)C3)ccc2N1 (single isomer, unassigned) [Example 2A]
efflux ratio at 120 min, 10 μM [1]: 3.3 | IC50 [2]: 100 nM

O=C1CCc2cc([C@H](O)CN3C[C@@H]4C[C@@H](Oc5cccc(F)c5F)C[C@]4(O)C3)ccc2N1 (single isomer, unassigned) [Example 24D]
efflux ratio at 120 min, 10 μM [1]: 2.64 | IC50 [2]: 0.056 nM

O=C1Nc2ccc([C@@H](O)CN3C[C@H]4C[C@H](Oc5ccccc5)C[C@@]4(O)C3)c(F)c2CO1 (single isomer, unassigned) [Example 34A]
efflux ratio at 120 min, 10 μM [1]: 3.81 | IC50 [2]: 2.7 nM

O=C1CCc2cc([C@@H](O)CN3C[C@@H]4C[C@@H](Oc5cccc(F)c5)C[C@]4(O)C3)ccc2N1 (single isomer, unassigned) [Example 23C]
efflux ratio at 120 min, 10 μM [1]: 3.75 | IC50 [2]: 1.4 nM

O=C1Nc2cc(F)c([C@H](O)CN3C[C@H]4C[C@H](Oc5ccccc5)C[C@@]4(O)C3)cc2CO1 (single isomer, unassigned) [Example 36B]
efflux ratio at 120 min, 10 μM [1]: 2.44 | IC50 [2]: 1.5 nM

O=C1Nc2ccc([C@@H](O)CN3C[C@H]4C[C@H](Oc5ccccc5F)C[C@@]4(O)C3)cc2CCO1 (single isomer, unassigned) [Example 12A]
efflux ratio at 120 min, 10 μM [1]: 2.81 | IC50 [2]: 0.3 nM

O=C1CCCc2cc([C@@H](O)CN3C[C@H]4C[C@H](Oc5ccccc5F)C[C@@]4(O)C3)ccc2N1 (single isomer, unassigned) [Example 43A]
efflux ratio at 120 min, 10 μM [1]: 2.16 | IC50 [2]: 0.034 nM

O=C1CCc2cc([C@H](O)CN3C[C@@H]4C[C@@H](Oc5cccc(F)c5)C[C@]4(O)C3)ccc2N1 (single isomer, unassigned) [Example 23D]
efflux ratio at 120 min, 10 μM [1]: 3.28 | IC50 [2]: 1.3 nM

O=C1Nc2ccc([C@H](O)CN3C[C@H]4C[C@H](Oc5ccccc5F)C[C@@]4(O)C3)cc2CO1 (single isomer, unassigned) [Example 41B]
efflux ratio at 120 min, 10 μM [1]: 2.44 | IC50 [2]: 0.23 nM

O=C1CCc2cc([C@@H](O)CN3C[C@H]4C[C@H](Oc5ccccc5F)[C@H](O)[C@@]4(O)C3)cc(F)c2N1 (single isomer, unassigned) [Example 29A]
efflux ratio at 120 min, 10 μM [1]: 3.23 | IC50 [2]: 130 nM

O=C1Nc2c(F)cc([C@@H](O)CN3C[C@H]4C[C@H](Oc5ccccc5F)C[C@@]4(O)C3)cc2CO1 (single isomer, unassigned) [Example 35A]
efflux ratio at 120 min, 10 μM [1]: 1 | IC50 [2]: 1.2 nM

O=c1[nH]c2ccc([C@H](O)CN3C[C@H]4C[C@H](Oc5ccccc5)C[C@@]4(O)C3)cc2s1 (single isomer, unassigned) [Example 17B]
efflux ratio at 120 min, 10 μM [1]: 2.06 | IC50 [2]: 0.049 nM

O=C1CCc2c(ccc([C@H](O)CN3C[C@H]4C[C@H](Oc5ccccc5)C[C@@]4(O)C3)c2F)N1 (single isomer, unassigned) [Example 9B]
efflux ratio at 120 min, 10 μM [1]: 1.4 | IC50 [2]: 4.1 nM

O=C1CCCc2cc([C@@H](O)CN3C[C@H]4C[C@H](Oc5ccccc5)C[C@@]4(O)C3)ccc2N1 (single isomer, unassigned) [Example 7A]
efflux ratio at 120 min, 10 μM [1]: 2.73 | IC50 [2]: 14 nM

O=C1Nc2ccc([C@H](O)CN3C[C@H]4C[C@H](Oc5ccccc5)C[C@@]4(O)C3)c(F)c2CO1 (single isomer, unassigned) [Example 34B]
efflux ratio at 120 min, 10 μM [1]: 3.47 | IC50 [2]: 1.1 nM

9-fluoro-7-((R)-1-hydroxy-2-((3aS,5S,6aR)-3a-hydroxy-5-phenoxyhexahydrocyclopenta[c]pyrrol-2(1H)-yl)ethyl)-1,5-dihydrobenzo[e][1,4]oxazepin-2(3H)-one [Example 32A]
MDCK-MDR1 ER ([1]; efflux ratio, 10 μM, 120 min): 0.83 | IC50 [2]: 960 nM

O=C1CCc2cc([C@@H](O)CN3C[C@@H]4C[C@@H](Oc5cc(F)ccc5F)C[C@]4(O)C3)ccc2N1 (single isomer, unassigned) [Example 26C]
efflux ratio at 120 min, 10 μM [1]: 3.27 | IC50 [2]: 1.3 nM

O=C1CCc2cc([C@@H](O)CN3C[C@H]4C[C@H](Oc5ccccc5F)C[C@@]4(O)C3)cc(F)c2N1 (single isomer, unassigned) [Example 6A]
efflux ratio at 120 min, 10 μM [1]: 1.01 | IC50 [2]: 520 nM

O=C1CCc2cc([C@@H](O)CN3C[C@@H]4C[C@@H](Oc5c(F)cccc5F)C[C@]4(O)C3)ccc2N1 (single isomer, unassigned) [Example 27C]
efflux ratio at 120 min, 10 μM [1]: 1.52 | IC50 [2]: 1.7 nM

Reference: US20240208953A1, “"Cyclopenta[c]pyrrol Negative Allosteric Modulators of NR2B"” (Novartis AG, priority 2021, published 2024)
